Source: patent US9695155B2, “Herbicidal substituted pyrimidinyloxy benzene compounds” (E. I. DU PONT DE NEMOURS AND COMPANY, priority 2013, dated 2017)

Key:
barnyardgrass [1] = experiment: Test A preemergence; assay type: in vivo, Echinochloa crus-galli
Summary of the method: (§1)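 Greenhouse pot test, loam/sand soil. Formulation: non-phytotoxic solvent mix plus surfactant. Pre: directed spray onto soil after sowing. Post: plants at 1–2 leaf, 2–10 cm. Rated visually vs untreated controls at ~10 d, 0 (no effect) to 100 (complete control).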

kochia = experiment: Test A preemergence; assay type: in vivo, Kochia scoparia
Summary of the method: as §1

Italian ryegrass [2] = experiment: Test A preemergence; assay type: in vivo, Lolium multiflorum
Summary of the method: as §1

barnyardgrass [3] = experiment: Test A postemergence; assay type: in vivo, Echinochloa crus-galli
Summary of the method: as §1

Italian ryegrass [4] = experiment: Test A postemergence; assay type: in vivo, Lolium multiflorum; conditions: for Ryegrass, Italian plant response rating: 125 g ai/ha
Summary of the method: as §1

wheat = experiment: Test A postemergence; assay type: in vivo, Triticum aestivum; conditions: for Wheat plant response rating: 125 g ai/ha
Summary of the method: as §1

blackgrass = experiment: Test C postemergence; assay type: in vivo, Alopecurus myosuroides; conditions: for Plant response rating (0 to 100), Blackgrass: 0 is no effect, 100 is complete control
Summary of the method: (§2)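 Whole-plant greenhouse test with surfactant-containing solvent formulation, applied preemergence to sown loam–sand pots or postemergence to 2–18 cm plants. Scored by eye 13 to 15 days on, 0–100 scale.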

galium = experiment: Test C postemergence; assay type: in vivo, Galium aparine; conditions: for Plant response rating (0 to 100), Galium: 0 is no effect, 100 is complete control
Summary of the method: as §2

giant foxtail = experiment: Test C postemergence; assay type: in vivo, Setaria faberii; conditions: for Plant response rating (0 to 100), Foxtail, Giant: 0 is no effect, 100 is complete control
Summary of the method: as §2

lambsquarters = experiment: Test C postemergence; assay type: in vivo, Chenopodium album; conditions: for Plant response rating (0 to 100), Lambsquarters: 0 is no effect, 100 is complete control
Summary of the method: as §2

ragweed = experiment: Test C postemergence; assay type: in vivo, Ambrosia elatior; conditions: for Plant response rating (0 to 100), Ragweed: 0 is no effect, 100 is complete control
Summary of the method: as §2

soybean = experiment: Test C postemergence; assay type: in vivo, Glycine max; conditions: for Plant response rating (0 to 100), Soybean: 0 is no effect, 100 is complete control
Summary of the method: as §2

velvetleaf = experiment: Test C postemergence; assay type: in vivo, Abutilon theophrasti; conditions: for Plant response rating (0 to 100), Velvetleaf: 0 is no effect, 100 is complete control
Summary of the method: as §2

[5] = 31 g ai/ha, 0 to 100 scale where 0 is no effect and 100 is complete control, visual, approximately 10 days
[6] = 125 g ai/ha, 0 to 100 scale where 0 is no effect and 100 is complete control
[7] = 31 g ai/ha, 0 to 100 scale, 0 no effect, 100 complete control
[8] = 0 to 100 scale where 0 is no effect and 100 is complete control
[9] = 31 g ai/ha, postemergence, visual rating, scale 0 to 100 (0 no effect, 100 complete control), 13 to 15 days
[10] = 1000 g ai/ha, 0 to 100 scale, 0 no effect, 100 complete control
[11] = 1000 g ai/ha, 0 to 100 scale, 0 no effect, 100 complete control, approx. 10 days
[12] = 125 g ai/ha, postemergence, visual rating, scale 0 to 100 (0 no effect, 100 complete control)
[13] = Postemergence, 31 g ai/ha, scale 0 to 100 (0 no effect, 100 complete control), 13 to 15 days
[14] = Postemergence, 62 g ai/ha, scale 0 to 100 (0 no effect, 100 complete control)
[15] = 500 g ai/ha, 0 to 100 scale where 0 is no effect and 100 is complete control

FCc1cccc(Oc2ncc(F)cn2)c1-n1cc(I)cn1 [Compound 152]
Plant response rating, Barnyardgrass (barnyardgrass [1]; [5]): 20 | Plant response rating, Barnyardgrass (barnyardgrass [1]; [6]): 70 | Plant response rating, Kochia (kochia; [5]): 20 | Plant response rating, Kochia (kochia; [6]): 90 | Plant response rating, Ryegrass, Italian (Italian ryegrass [2]; [5]): 0 | Plant response rating, Ryegrass, Italian (Italian ryegrass [2]; [6]): 0 | Plant response rating, Barnyardgrass (barnyardgrass [3]; [7]): 0 | Barnyardgrass plant response rating (barnyardgrass [3]; [6]): 30 | Plant response rating, Ryegrass, Italian (Italian ryegrass [4]; [7]): 0 | Ryegrass, Italian plant response rating (Italian ryegrass [4]; [8]): 20 | Plant response rating, Wheat (wheat; [7]): 20 | Wheat plant response rating (wheat; [8]): 40 | Plant response rating (0 to 100), Blackgrass (blackgrass; 4 g ai/ha, postemergence): 0 | Plant response rating (0 to 100), Blackgrass (blackgrass; 8 g ai/ha, postemergence): 0 | Plant response rating (0 to 100), Blackgrass (blackgrass; 16 g ai/ha, postemergence): 0 | Blackgrass plant response rating (blackgrass; [9]): 0 | Plant response rating (0 to 100), Galium (galium; 8 g ai/ha, postemergence): 15 | Plant response rating (0 to 100), Galium (galium; 16 g ai/ha, postemergence): 35 | Galium plant response rating (galium; [9]): 55 | Plant response rating (0 to 100), Foxtail, Giant (giant foxtail; 8 g ai/ha, postemergence): 0 | Plant response rating (0 to 100), Foxtail, Giant (giant foxtail; 16 g ai/ha, postemergence): 5 | Foxtail, Giant plant response rating (giant foxtail; [9]): 5 | Plant response rating (0 to 100), Lambsquarters (lambsquarters; 8 g ai/ha, postemergence): 60 | Plant response rating (0 to 100), Lambsquarters (lambsquarters; 16 g ai/ha, postemergence): 40 | Lambsquarters plant response rating (lambsquarters; [9]): 80 | Plant response rating (0 to 100), Ragweed (ragweed; 8 g ai/ha, postemergence): 15 | Plant response rating (0 to 100), Ragweed (ragweed; 16 g ai/ha, postemergence): 10 | Ragweed plant response rating (ragweed; [9]): 40 | Plant response rating (0 to 100), Soybean (soybean; 8 g ai/ha, postemergence): 30 | Plant response rating (0 to 100), Soybean (soybean; 16 g ai/ha, postemergence): 35 | Soybean plant response rating (soybean; [9]): 60 | Plant response rating (0 to 100), Velvetleaf (velvetleaf; 8 g ai/ha, postemergence): 5 | Plant response rating (0 to 100), Velvetleaf (velvetleaf; 16 g ai/ha, postemergence): 20 | Velvetleaf plant response rating (velvetleaf; [9]): 45

FCc1cn(-c2ccccc2Oc2ncc(Cl)cn2)nn1 [Compound 123]
Plant response rating, Barnyardgrass (barnyardgrass [1]; [10]): 100 | Kochia plant response rating (kochia; [11]): 100 | Ryegrass, Italian plant response rating (Italian ryegrass [2]; [11]): 70 | Plant response rating, Barnyardgrass (barnyardgrass [3]; [10]): 100 | Plant response rating, Ryegrass, Italian (Italian ryegrass [4]; [10]): 90 | Plant response rating, Wheat (wheat; [10]): 70 | Plant response rating (0 to 100), Blackgrass (blackgrass; 16 g ai/ha, postemergence): 0 | Plant response rating, Blackgrass (blackgrass; [12]): 0 | Plant response rating, Blackgrass (blackgrass; [13]): 0 | Plant response rating, Blackgrass (blackgrass; [14]): 0 | Plant response rating (0 to 100), Galium (galium; 16 g ai/ha, postemergence): 40 | Plant response rating, Galium (galium; [12]): 90 | Plant response rating, Galium (galium; [14]): 85 | Plant response rating (0 to 100), Foxtail, Giant (giant foxtail; 16 g ai/ha, postemergence): 0 | Plant response rating, Foxtail, Giant (giant foxtail; [12]): 20 | Plant response rating, Foxtail, Giant (giant foxtail; [14]): 20 | Plant response rating (0 to 100), Lambsquarters (lambsquarters; 16 g ai/ha, postemergence): 60 | Plant response rating, Lambsquarters (lambsquarters; [12]): 85 | Plant response rating, Lambsquarters (lambsquarters; [14]): 85 | Plant response rating (0 to 100), Ragweed (ragweed; 16 g ai/ha, postemergence): 35 | Plant response rating, Ragweed (ragweed; [12]): 75 | Plant response rating, Ragweed (ragweed; [14]): 70 | Plant response rating (0 to 100), Soybean (soybean; 16 g ai/ha, postemergence): 45 | Plant response rating, Soybean (soybean; [12]): 90 | Plant response rating, Soybean (soybean; [14]): 65 | Plant response rating (0 to 100), Velvetleaf (velvetleaf; 16 g ai/ha, postemergence): 60 | Plant response rating, Velvetleaf (velvetleaf; [12]): 100 | Plant response rating, Velvetleaf (velvetleaf; [14]): 80

Clc1cnc(Oc2cccc(Br)c2-n2cc(I)nn2)nc1 [Compound 117]
Plant response rating, Barnyardgrass (barnyardgrass [1]; [6]): 30 | Barnyardgrass plant response rating (barnyardgrass [1]; [15]): 90 | Plant response rating, Kochia (kochia; [6]): 70 | Kochia plant response rating (kochia; [15]): 100 | Plant response rating, Ryegrass, Italian (Italian ryegrass [2]; [6]): 20 | Ryegrass, Italian plant response rating (Italian ryegrass [2]; [15]): 30 | Plant response rating, Barnyardgrass (barnyardgrass [3]; [6]): 70 | Plant response rating, Barnyardgrass (barnyardgrass [3]; [15]): 90 | Plant response rating, Ryegrass, Italian (Italian ryegrass [4]; [15]): 90 | Plant response rating, Wheat (wheat; [15]): 70 | Plant response rating (0 to 100), Blackgrass (blackgrass; 16 g ai/ha, postemergence): 5 | Plant response rating, Blackgrass (blackgrass; [12]): 10 | Plant response rating, Blackgrass (blackgrass; [13]): 10 | Plant response rating, Blackgrass (blackgrass; [14]): 5 | Plant response rating (0 to 100), Galium (galium; 16 g ai/ha, postemergence): 80 | Plant response rating, Galium (galium; [12]): 80 | Plant response rating, Galium (galium; [14]): 70 | Plant response rating (0 to 100), Foxtail, Giant (giant foxtail; 16 g ai/ha, postemergence): 20 | Plant response rating, Foxtail, Giant (giant foxtail; [12]): 55 | Plant response rating, Foxtail, Giant (giant foxtail; [14]): 40 | Plant response rating (0 to 100), Lambsquarters (lambsquarters; 16 g ai/ha, postemergence): 45 | Plant response rating, Lambsquarters (lambsquarters; [12]): 75 | Plant response rating, Lambsquarters (lambsquarters; [14]): 50 | Plant response rating (0 to 100), Ragweed (ragweed; 16 g ai/ha, postemergence): 25 | Plant response rating, Ragweed (ragweed; [12]): 60 | Plant response rating, Ragweed (ragweed; [14]): 35 | Plant response rating (0 to 100), Soybean (soybean; 16 g ai/ha, postemergence): 35 | Plant response rating, Soybean (soybean; [12]): 50 | Plant response rating, Soybean (soybean; [14]): 50 | Plant response rating (0 to 100), Velvetleaf (velvetleaf; 16 g ai/ha, postemergence): 10 | Plant response rating, Velvetleaf (velvetleaf; [12]): 45 | Plant response rating, Velvetleaf (velvetleaf; [14]): 30

N#Cc1cnn(-c2c(Br)cccc2Oc2ncc(Cl)cn2)c1 [Compound 140]
Plant response rating, Barnyardgrass (barnyardgrass [1]; [5]): 30 | Plant response rating, Barnyardgrass (barnyardgrass [1]; [6]): 70 | Plant response rating, Kochia (kochia; [5]): 60 | Plant response rating, Kochia (kochia; [6]): 100 | Plant response rating, Ryegrass, Italian (Italian ryegrass [2]; [5]): 0 | Plant response rating, Ryegrass, Italian (Italian ryegrass [2]; [6]): 0 | Plant response rating, Barnyardgrass (barnyardgrass [3]; [7]): 30 | Barnyardgrass plant response rating (barnyardgrass [3]; [6]): 70 | Plant response rating, Ryegrass, Italian (Italian ryegrass [4]; [7]): 0 | Ryegrass, Italian plant response rating (Italian ryegrass [4]; [8]): 30 | Plant response rating, Wheat (wheat; [7]): 0 | Wheat plant response rating (wheat; [8]): 0 | Plant response rating (0 to 100), Blackgrass (blackgrass; 16 g ai/ha, postemergence): 0 | Plant response rating, Blackgrass (blackgrass; [12]): 5 | Plant response rating, Blackgrass (blackgrass; [13]): 0 | Plant response rating, Blackgrass (blackgrass; [14]): 0 | Plant response rating (0 to 100), Galium (galium; 16 g ai/ha, postemergence): 50 | Plant response rating, Galium (galium; [12]): 95 | Plant response rating, Galium (galium; [14]): 90 | Plant response rating (0 to 100), Foxtail, Giant (giant foxtail; 16 g ai/ha, postemergence): 5 | Plant response rating, Foxtail, Giant (giant foxtail; [12]): 20 | Plant response rating, Foxtail, Giant (giant foxtail; [14]): 20 | Plant response rating (0 to 100), Lambsquarters (lambsquarters; 16 g ai/ha, postemergence): 35 | Plant response rating, Lambsquarters (lambsquarters; [12]): 85 | Plant response rating, Lambsquarters (lambsquarters; [14]): 80 | Plant response rating (0 to 100), Ragweed (ragweed; 16 g ai/ha, postemergence): 25 | Plant response rating, Ragweed (ragweed; [12]): 75 | Plant response rating, Ragweed (ragweed; [14]): 60 | Plant response rating (0 to 100), Soybean (soybean; 16 g ai/ha, postemergence): 25 | Plant response rating, Soybean (soybean; [12]): 75 | Plant response rating, Soybean (soybean; [14]): 65 | Plant response rating (0 to 100), Velvetleaf (velvetleaf; 16 g ai/ha, postemergence): 5 | Plant response rating, Velvetleaf (velvetleaf; [12]): 60 | Plant response rating, Velvetleaf (velvetleaf; [14]): 45
